Measured values reported in patent publication US7220784B2, “Substituted stilbenes and their reactions” (priority 2000, dated 2007).
Where two headings read alike, the source gives them in different places.

Tests used:
K562 cells = experiment: In situ ultra violet irradiation of dosed K562 cells, IC50; type: cell-based, human; settings: read-out: IC50 K562 (Nm)
Description: Previously, the isomerisation study had been performed ex situ, i.e. in a photochemical reactor. However, it was necessary to illustrate the potential of the process as a real therapy by repeating the isomerization in the presence of the caner cells i.e. in situ. […] Following irradiation, the cells were incubated in the normal way and the IC50 values were determined.
These consisted of i) exposing K562 cells only (i.e. cells which were not dosed with any potential drug candidate) to ultra violet light, ii) preventing K562 cells dosed with drug candidate from being exposed to ultra violet light, and iii) preventing K562 cells only (i.e. cells which were not dosed with any potential drug candidate) from being exposed to ultra violet light. […]

[1] = system: K562 human myelogeneous leukaemia cell line; experiment: Cytotoxicity/growth inhibition assay (MTT), K562; type: cell-based
Description: In addition to the cell lines described in this paper, other established human cell lines (K562, HUVEC, H460, BE, H529, and HT29) were used in the cytotoxicity/growth inhibition assay. • (1) Inhibition of tubulin assembly. The figure quoted is the concentration required to reduce assembly of tubulin by 50%. Tubulin assembly is monitored by light scatter/absorption at 350 nm.
(§1) (2) Competition for the colchicine binding site on tubulin. The figure quoted represents the % of ^3H-colchicine bound following co-incubation of test compound and ^3H-cochicine with isolated tubulin. Where ester pro-drugs were used the experiments were carried out in the presence and absence of porcine liver esterase. • (3) Cytotoxicity/growth inhibition assay. This was carried out by the MTT assay. • (4) Permeability (shape-change) assay in endothelial cells. […] This involved the diffusion of a fluorescently labelled dextran through a barrier of endothelial cells (HUVEC) grown to confluence on a porous membrane. The effect of agents to alter the shape of these cells results in an increase in the permeability of the cells to the dye. The figure represents the increase in permeability over control cultures when drug is added (30 minutes, 1 mM.). • (5) Experiments to study the anti-vascular effects of these agents were carried out as described previously by our group. […] The anti-vascular effects of the agents were monitored by either positron emission tomography (PET) or by histologogical examination following treatment of mice bearing T50:80 murine breast tumours, or H460 human lung tumours. • (6) Anti-tumour efficacy of agents was determined in xenografts of H460 human lung cancer. Animals (n=5) were trated either with 5 daily injections and tumour size measured with time following treatment. • (7) The pharmacokinetic profile of agents was determined in mice following injection with drug. Blood was taken at various times following treatment and analysed by HPLC with UV detection. […] (AND(P)H:quinone oxidoreductace, EC 1.6.99.2). DT-diaphorase is an enzyme over-expressed in a number of human tumours. […] This two-electron reducing enzyme can be used to selectively activate prodrugs within cancers which over-express the enzyme.

[2] = system: P388 murine leukaemia cell line; experiment: Cytotoxicity/growth inhibition assay (MTT), P388; type: cell-based
Description: as §1

tubulin [3] = experiment: CD IC50 (Tables 12-26, abbreviation not defined); type: binding
tubulin [4] = experiment: MA IC50 (Tables 12-26, abbreviation not defined); type: biochemical
K562 = K562 cell cycle analysis; type: cell-based, human; settings: K562
[5] = Homo sapiens, K562, MTT, read-out: K562 IC50
[6] = Homo sapiens, K562, Table 22, read-out: MTT (K582) IC50
[7] = Table 22, read-out: MTT (K582) IC50
[8] = of cells with DNA content = 2 n or >2 n

Compound	IC50 [1, 5] [µM]	IC50 (tubulin [3]) [µM]	IC50 (tubulin [4]) [µM]	further results
4-[2′-methoxy-4′-({2″-methoxy-5″-[(E)-2′″-3′″,4′″,5′″-trimethoxyphenyl)ethenyl]phenoxy}methyl)-5′-nitrophenoxy]butanoic acid(potassium salt) [Compound E-12]	–	–	–	IC50 (K562 cells; in situ UV 0 mins (Table 10)): > 50 µM; IC50 (K562 cells; in situ UV 0.5 mins (Table 10)): 1.01 µM; IC50 (K562 cells; in situ UV 1 mins (Table 10)): 0.41 µM; IC50 (K562 cells; in situ UV 1.5 mins (Table 10)): 0.3 µM; IC50 (K562 cells; in situ UV 2 mins (Table 10)): 0.16 µM; IC50 (K562 cells; in situ UV 3 mins (Table 10)): 0.05 µM; IC50 (K562 cells; in situ UV 4 mins (Table 10)): 0.058 µM; IC50 (K562 cells; in situ UV 5 mins (Table 10)): 0.046 µM; IC50 (K562 cells; in situ UV 7.5 mins (Table 10)): 0.022 µM; IC50 (K562 cells; in situ UV 10 mins (Table 10)): 0.016 µM; IC50 (K562 cells; in situ UV 12.5 mins (Table 10)): 0.012 µM; IC50 (K562 cells; in situ UV 15 mins (Table 10)): 0.01 µM; IC50 (K562 cells; in situ UV 17.5 mins (Table 10)): 0.009 µM; IC50 (K562 cells; in situ UV 20 mins (Table 10)): 0.008 µM
COc1ccc(/C=C(/C)c2cc(OC)c(OC)c(OC)c2)cc1O[Si](C)(C)C(C)(C)C [Compound 17a, Z-(3′-t-butyldimethylsilyloxy-4′-methoxyphenyl)-2-(3″,4″,5″-trimethoxyphenyl)propene]	0.2	–	–	–
COc1ccc(/C=C(\C)c2cc(OC)c(OC)c(OC)c2)cc1O[Si](C)(C)C(C)(C)C [Compound 17b, E-1-(3′-t-Butyldimethylsilyloxy-4′-methoxyphenyl)-2-(3″,4″,5″-trimethoxyphenyl)propene]	6	–	–	–
COc1ccc(/C(C)=C\c2cc(OC)c(OC)c(OC)c2)cc1O [Compound 20, Z-1-(3′,4′,5′-trimethoxyphenyl)-2-(3″-hydroxy-4″-methoxyphenyl)propene]	1.8	–	–	IC50 ([2]; Mus musculus, P388, MTT): 7 µM
COc1ccc(/C=C(/C)c2cc(OC)c(OC)c(OC)c2)cc1 [Compound 23a, Z-1-(4′-Methoxyphenyl)-2-(3″,4″,5″-trimethoxyphenyl)propene]	0.1	–	–	–
COc1ccc(/C=C(\C)c2cc(OC)c(OC)c(OC)c2)cc1 [Compound 23b, E-1-(4′-Methoxyphenyl)-2-(3″,4″,5″-trimethoxyphenyl)propene]	0.79	–	–	–
COc1ccc(/C=C\c2cc(C)c(C)c(C)c2)cc1Oc1c(F)c(F)nc(F)c1F [Compound 27, (Z)-1-(3′,4′,5′-trimethylphenyl)-2-(3″-(2′″,3′″,5′″,6′″-tetrafluoropyridoxy)-4″-methoxyphenyl)ethene]	9	–	–	–
COc1ccc(C=C(C(=O)O)c2cc(OC)c(OC)c(OC)c2)cc1O [Compound 80]	–	> 25	> 10	IC50 [1, 6]: > 50 µM
COC(=O)C(=Cc1ccc(OC)c(O)c1)c1cc(OC)c(OC)c(OC)c1 [Compound 81]	–	> 25	> 10	IC50 [1, 6]: > 50 µM
COc1ccc(C=C(CO)c2cc(OC)c(OC)c(OC)c2)cc1O [Compound 82]	–	> 25	> 10	IC50 [1, 6]: > 50 µM
COc1ccc(/C=C/c2cc(OC)c(OC)c(OC)c2)cc1Br [Compound 96]	–	> 25	> 10	IC50 ([1]; MTT, read-out: K562 IC50): 7.83 µM
COc1cc(/C=C\c2cccc(O)c2)cc(OC)c1OC [Compound 101]	0.14	> 25	> 10	IC50 ([2]; Mus musculus, P388, MTT): 0.3 µM
COc1cc(/C=C\c2ccc(C)c(C)c2)cc(OC)c1OC [Compound 103]	0.04	> 25	2	IC50 ([2]; Mus musculus, P388, MTT): 0.1 µM
COc1cc(/C=C/c2ccc(C)c(C)c2)cc(OC)c1OC [Compound 104]	–	> 25	> 10	IC50 ([1]; MTT, read-out: K562 IC50): 35.8 µM; IC50 ([2]; MTT): 20 µM
Cc1ccc(C=Cc2ccc(C)c(C)c2)cc1 [Compound 137]	3.4	> 25	> 10	IC50 ([2]; Mus musculus, P388, MTT): 2 µM
COc1ccc(C=Cc2ccc(C)c(C)c2)cc1[N+](=O)[O-] [Compound 139]	1.8	> 25	> 10	IC50 ([2]; Mus musculus, P388, MTT): 20 µM
COc1ccc(/C=C/c2ccc(C)c(C)c2)cc1[N+](=O)[O-] [Compound 140]	–	> 25	> 10	IC50 ([1]; MTT, read-out: K562 IC50): 24 µM; IC50 ([2]; MTT): > 50 µM
COc1ccc(C=C(C)c2cc(OC)c(OC)c(OC)c2)cc1O[Si](C)(C)C(C)(C)C [Compound 208]	–	> 25	1.5	IC50 [1, 6]: 0.2 µM
COc1ccc(/C=C(\C)c2cc(OC)c(OC)c(OC)c2)cc1O[Si](C)(C)C(C)(C)C [Compound 209]	–	> 25	> 10	IC50 [1, 7]: 6 µM

Compound	IC50 [1, 5] [µM]	IC50 (tubulin [3]) [µM]	IC50 (tubulin [4]) [µM]	further results
COc1ccc(/C=C(\C)c2cc(OC)c(OC)c(OC)c2)cc1O [Compound 211]	0.7	> 25	> 10	IC50 [1, 6]: 0.7 µM
COc1ccc(/C=C(\C)c2cc(OC)c(OC)c(OC)c2)cc1 [Compound 214]	–	> 25	> 10	IC50 [1, 7]: 0.8 µM
CCC(=Cc1ccc(OC)c(O[Si](C)(C)C(C)(C)C)c1)c1cc(OC)c(OC)c(OC)c1 [Compound 217]	–	> 25	> 10	IC50 [1, 6]: 0.5 µM
CC/C(=C\c1ccc(OC)c(O[Si](C)(C)C(C)(C)C)c1)c1cc(OC)c(OC)c(OC)c1 [Compound 218]	–	> 25	> 10	IC50 [1, 7]: 3.4 µM
CC/C(=C\c1ccc(OC)c(O)c1)c1cc(OC)c(OC)c(OC)c1 [Compound 220]	–	> 25	> 10	IC50 [1, 7]: 4 µM
COc1ccc(/C=C\c2cc(OC)c(OC)c(O[Si](C)(C)C(C)(C)C)c2)cc1F [Compound 240]	0.5	> 25	> 10	–
COc1ccc(/C=C/c2cc(OC)c(OC)c(O[Si](C)(C)C(C)(C)C)c2)cc1F [Compound 241]	–	> 25	> 10	IC50 ([1]; MTT, read-out: K562 IC50): 10 µM
COc1ccc(/C=C\c2cc(O)c(OC)c(OC)c2)cc1F [Compound 242]	0.02	9	1.25	% of cells with DNA content <2 n (K562): 29%; % of cells in G0–G1 (K562; [8]): 7%; % of cells in G2-M (K562; [8]): 71%; % of cells in S phase (K562; [8]): 22%
COc1ccc(/C=C/c2cc(O)c(OC)c(OC)c2)cc1F [Compound 243]	–	> 25	> 10	IC50 ([1]; MTT, read-out: K562 IC50): 5 µM
CCOc1cc(C=Cc2ccc(OC)c(Br)c2)cc(OCC)c1OCC [Compound 247]	0.6	> 25	> 10	–
CCOc1cc(/C=C/c2ccc(OC)c(Br)c2)cc(OCC)c1OCC [Compound 248]	–	> 25	> 10	IC50 ([1]; MTT, read-out: K562 IC50): > 50 µM
CCOc1cc(C=Cc2ccc(OC)cc2)cc(OCC)c1OCC [Compound 249]	0.5	> 25	> 10	–
CCOc1cc(/C=C/c2ccc(OC)cc2)cc(OCC)c1OCC [Compound 250]	–	> 25	> 10	IC50 ([1]; MTT, read-out: K562 IC50): > 50 µM
CCOc1cc(/C=C/c2ccc(OC)c(F)c2)cc(OCC)c1OCC [Compound 252]	–	> 25	> 10	IC50 ([1]; MTT, read-out: K562 IC50): > 50 µM
CCOc1cc(/C=C/c2ccc(OC)c(O)c2)cc(OCC)c1OCC [Compound 254]	–	> 25	> 10	IC50 ([1]; MTT, read-out: K562 IC50): 0.2 µM
CCOc1cc(C=Cc2ccc(OC)c(Br)c2)cc(OCC)c1OCC [Compound 255]	–	> 25	> 10	–
CCOc1cc(C=Cc2ccc(OC)c(Cl)c2)cc(OCC)c1OCC [Compound 257]	0.45	> 25	> 10	–
CCOc1cc(/C=C/c2ccc(OC)c(Cl)c2)cc(OCC)c1OCC [Compound 258]	–	> 25	> 10	IC50 ([1]; MTT, read-out: K562 IC50): 7 µM
